# Legend:
# human plasma protein = assay: in vitro
# Experimental: Samples at the dosing and receiving ends and at the preparation instant (0 h) were assayed by LC-MS/MS, and the plasma protein binding (PPB) rates and the recovery rates were calculated based on the assay results. The plasma samples and PBS samples prepared from the test samples and the commercially available controls were incubated at 37° C. for 6 h with oscillation (100 rpm) and then assayed for stability.
# [1] = standard animal models for analgesic effect; cited from earlier work
# [2] = multiple tests; cited from earlier work
# [3] = compared with morphine; cited from earlier work
"recovery at 6 h, 300 ng/mL (human plasma protein)",Structure (SMILES),"analgesic activity compared with indomethacin, naproxen, phenylbutazone [1]",analgesic activity relative to aspirin [1],"anti-inflammatory activity compared with indomethacin, naproxen, phenylbutazone [2]",relieving postsurgical pain [3]
96.2%,CC(=O)CC(c1ccccc1)c1c(O)c2ccccc2oc1=O (centres unmarked) [Warfarin],,,,
,O=C(c1ccccc1)c1ccc2n1CCC2C(=O)O (centres unmarked) [Ketorolac tromethamine],"stronger than that of indomethacin and naproxen, and equivalent to or better than that of phenylbutazone",800 times,"equivalent to or stronger than that of indomethacin, stronger than that of naproxen, and significantly better than that of phenylbutazone",superior to morphine

# Reference: patent US20240325303A1, “KETOROLAC LIQUID COMPOSITION, PREPARATION METHOD THEREFOR, AND APPLICATION THEREOF” (SHANGHAI AURORA BIOTECHNOLOGY CO., LTD., priority 2021, published 2024)
